From US20190038209A1, “Using Spectral CT to Diagnose Thyroid Nodules” (BOARD OF REGENTS, THE UNIVERSITY OF TEXAS SYSTEM, priority 2016, published 2019)

Test: Spectral CT iodine-no-water map of rat thyroid before and after oral potassium iodide
Format: in vivo
Conditions: Fischer rats, 654 mg potassium iodide (500 mg iodine) oral gavage, 10 hours of uptake; baseline 1.5 mg I/mL
Procedure: Next, a Philips IQon Spectral CT scanner was used to obtain in vivo animal data. Three healthy female Fischer rats ranging from 150 g to 250 g mass were each anesthetized using 2.5% isoflurane and scanned in a supine position using the highest resolution settings for the IQon Spectral CT clinical scanner (0.625 mm slice thickness with 0.20 mm in-plane pixel resolution). The baseline endogenous iodine levels within the rat thyroid were measured using the iodine-no-water map and averaged 1.5 mg I/mL. These levels are similar to the baseline endogenous iodine levels found within healthy human thyroid tissue. The rats were then each given a bolus dose of 654 mg of potassium iodide (equivalent to 500 mg of iodine) that was dissolved in 1 mL of water and administered orally using a gavage. After 10 hours of uptake the rats were again anesthetized with 2.5% isoflurane and scanned a second time on the IQon Spectral CT using the same settings as before. The iodine levels within the rat thyroid now averaged 3.0 mg I/mL, or a 100% increase in iodine. […] Generally, a 500 mg dose of oral iodine given to humans can increase the level of organified iodine in the thyroid tissue (after a full 24 hours of uptake) from 1.5 mg I/mL to 5-10 mg I/ml depending on total thyroid volume. […]

For `[I-].[K+]` [potassium iodide], the “iodine levels within the rat thyroid (average)” value was 3.0 mg I/mL.
